Patent US20230202989A1, “COMPOUNDS” (JANSSEN PHARMACEUTICA NV, priority 2020, published 2023)

Legend:
IL-1β = test: PBMC assay: inhibition of IL-1β release after LPS stimulation (MSD); type: cell-based; conditions: Homo sapiens, PBMC, 6 h, human PBMCs, 100 ng/ml LPS for 6 hrs, MSD, 96 well plates; read-out: IL1β IC50
Method: Peripheral venous blood s collected from health individuals and human peripheral blood mononuclear cells (PBMCs) ere isolated from blood by Ficoll Histopaque (Sigma-Aldrich, A0561) density gradient centrifugation. After isolation, PBMCs were stored in liquid nitrogen for later use. Upon thawing, PBMC cell viability was determined in growth medium (RPMI media supplemented with 10% fetal bovine serum, 1% Pen-Strep and 1% L-glutamine). […] PBMCs were added at a density of 7.5×10^4 cells per well and incubated for 30 min in a 5% CO2 incubator at 37° C. LPS stimulation was performed by addition of 100 ng/ml LPS (final concentration, Invivogen, tlrl-smlps) for 6 hrs followed by collection of cellular supernatant and the analysis of IL-1β (μM) and TNF cytokines levels (μM) via MSD technology according to manufacturers' guidelines (MSD, K151A0H).
(§1) The IC50 values (for IL-1β) and EC50 values (TNF) were obtained on compounds of the invention/examples, and are depicted in the following table: […]

TNF = test: PBMC assay: TNF cytokine levels after LPS stimulation (MSD); type: cell-based; conditions: Homo sapiens, PBMC, 6 h, human PBMCs, 100 ng/ml LPS for 6 hrs
Method: Peripheral venous blood s collected from health individuals and human peripheral blood mononuclear cells (PBMCs) ere isolated from blood by Ficoll Histopaque (Sigma-Aldrich, A0561) density gradient centrifugation. After isolation, PBMCs were stored in liquid nitrogen for later use. Upon thawing, PBMC cell viability was determined in growth medium (RPMI media supplemented with 10% fetal bovine serum, 1% Pen-Strep and 1% L-glutamine). Compounds were spotted in a 1:3 serial dilution in DMSO and diluted to the final concentration in 30 μl medium in 96 well plates (Falcon, 353072). PBMCs were added at a density of 7.5×10^4 cells per well and incubated for 30 min in a 5% CO2 incubator at 37° C. LPS stimulation was performed by addition of 100 ng/ml LPS (final concentration, Invivogen, tlrl-smlps) for 6 hrs followed by collection of cellular supernatant and the analysis of IL-1β (μM) and TNF cytokines levels (μM) via MSD technology according to manufacturers' guidelines (MSD, K151A0H).
as §1

Compound | IC50 (IL-1β) | EC50 (TNF)
CCc1nn(CC(=O)N[C@H]2C[C@@](C)(O)C2)c(=O)c2ccc(C(F)F)cc12 [Final Cpd 17] | 540 nM | > 10000 nM
CCc1nn(CC(=O)N[C@H]2C[C@@](C)(O)C2)c(=O)c2ccc(Br)cc12 [Final Cpd 18] | 30 nM | > 10000 nM
CCc1nn(CC(=O)N[C@H]2C[C@@](C)(O)C2)c(=O)c2ccc(C(F)(F)F)cc12 [Final Cpd 19] | 140 nM | > 10000 nM
CCc1nn(CC(=O)N[C@H]2C[C@@](C)(O)C2)c(=O)c2ccc(C(C)C)cc12 [Final Cpd 20] | 240 nM | > 10000 nM
CCc1nn(CC(=O)N[C@H]2C[C@@](C)(O)C2)c(=O)c2ccc(C3CC3)cc12 [Final Cpd 21] | 290 nM | > 10000 nM
CCc1ccc2c(=O)n(CC(=O)N[C@H]3C[C@@](C)(O)C3)nc(CC)c2c1 [Final Cpd 22] | 340 nM | > 10000 nM
CC(C)c1nn(CC(=O)Nc2ccncn2)c(=O)c2ccc(C3CC3)cc12 [Final Cpd 23] | 287 nM | 12000 nM
CCc1nn(CC(=O)N[C@H]2CC[C@H](O)CC2)c(=O)c2ccc(Br)cc12 [Final Cpd 24, trans-2-(6-bromo-4-ethyl-1-oxo-phthalazin-2-yl)-N-(4-hydroxycyclohexyl)acetamide] | 890 nM | > 10000 nM
CC(C)c1nn(CC(=O)N[C@H]2C[C@@](C)(O)C2)c(=O)c2ccc(C(F)(F)F)cc12 [Final Cpd 25] | 58 nM | 15400 nM
CCc1nn(CC(=O)N[C@H]2CC[C@H](O)CC2)c(=O)c2ccc(C)cc12 [Final Cpd 26, trans-2-(6-methyl-4-ethyl-1-oxo-phthalazin-2-yl)-N-(4-hydroxycyclohexyl)acetamide] | > 10000 nM | > 10000 nM
CCc1nn(CC(=O)N[C@H]2CC[C@H](O)CC2)c(=O)c2ccc(C3CC3)cc12 [Final Cpd 27] | 1660 nM | > 10000 nM
CCc1nn(CC(=O)N[C@H]2CC[C@H](O)CC2)c(=O)c2ccc(C(C)C)cc12 [Final Cpd 28] | 970 nM | > 10000 nM
CCc1ccc2c(=O)n(CC(=O)N[C@H]3CC[C@H](O)CC3)nc(CC)c2c1 [Final Cpd 29] | 3590 nM | > 10000 nM
CCc1nn(CC(=O)N[C@H]2CC[C@H](O)CC2)c(=O)c2ccc(C(F)(F)F)cc12 [Final Cpd 30] | 1290 nM | > 10000 nM
CC(C)c1nn(CC(=O)Nc2ccc3nncn3c2)c(=O)c2ccc(C3CC3)cc12 [Final Cpd 31] | 103 nM | 13600 nM
CC(C)c1nn(CC(=O)N[C@H]2C[C@@](C)(O)C2)c(=O)c2ccc(C3CC3)cc12 [Final Cpd 32] | 213 nM | > 20000 nM
CC(C)c1ccc2c(=O)n(CC(=O)Nc3ccc4nncn4c3)nc(C(C)C)c2c1 [Final Cpd 33] | < 120 nM | > 10000 nM
CC(C)c1ccc2c(=O)n(CC(=O)N[C@H]3C[C@@](C)(O)C3)nc(C(C)C)c2c1 [Final Cpd 34] | < 120 nM | > 10000 nM
CC(C)c1ccc2c(=O)n(CC(=O)Nc3ccncn3)nc(C(C)C)c2c1 [Final Cpd 35] | 170 nM | > 10000 nM
CC(C)c1nn(CC(=O)Nc2ccc3nncn3c2)c(=O)c2ccc(Br)cc12 [Final Cpd 36] | < 25 nM | > 10000 nM
CC(C)c1nn(CC(=O)N[C@H]2C[C@@](C)(O)C2)c(=O)c2ccc(Br)cc12 [Final Cpd 37] | < 25 nM | > 10000 nM

Compound | IC50 (IL-1β) | EC50 (TNF)
CC(C)c1nn(CC(=O)Nc2ccncn2)c(=O)c2ccc(Br)cc12 [Final Cpd 38] | < 25 nM | > 10000 nM
CC(C)c1nn(CC(=O)Nc2ccc3nncn3n2)c(=O)c2ccc(C(F)(F)F)c(F)c12 [Final Cpd X3] | 51 nM | 4010 nM
C[C@]1(O)C[C@@H](NC(=O)Cn2nc(C3CC3)c3cc(C(F)(F)F)ccc3c2=O)C1 [Final Cpd X4] | 60 nM | > 20000 nM
CC(C)c1nn(CC(=O)Nc2ccc3c(c2)[nH]c(=O)n3C)c(=O)c2ccc(C(F)(F)F)cc12 [Final Cpd X5] | 64 nM | > 20000 nM
CCN1CC[C@@H](O)[C@@H](NC(=O)Cn2nc(C(C)C)c3cc(C(F)(F)F)ccc3c2=O)C1 [Final Cpd X6, N-((3S,4R)-1-ethyl-4-hydroxypiperidin-3-yl)-2-(4-isopropyl-1-oxo-6-(trifluoromethyl)phthalazin-2(1H)-yl)acetamide] | 66 nM | > 20000 nM
CCc1nn(CC(=O)Nc2ccc3nncn3c2)c(=O)c2ccc(C(F)(F)F)cc12 [Final Cpd X8] | 75 nM | 12200 nM
CCN1CCC[C@@H](NC(=O)Cn2nc(C(C)C)c3cc(C(F)(F)F)ccc3c2=O)C1 [Final Cpd X9] | 90 nM | > 20000 nM
CC(C)c1nn(CC(=O)N[C@@H]2CCCN(C3CC3)C2)c(=O)c2ccc(C(F)(F)F)cc12 [Final Cpd X10] | 92 nM | > 20000 nM
CC(C)c1nn(CC(=O)Nc2nc(Cl)c3nc[nH]c3n2)c(=O)c2ccc(C(F)(F)F)cc12 [Final Cpd X11, N-(6-chloro-9H-purin-2-yl)-2-(4-isopropyl-1-oxo-6-(trifluoromethyl)phthalazin-2(1H)-yl)acetamide] | 105 nM | > 20000 nM
CC(C)c1nn(CC(=O)Nc2cn3cnnc3cn2)c(=O)c2ccc(C(F)(F)F)cc12 [Final Cpd X14, N-([1,2,4]triazolo[4,3-a]pyrazin-6-yl)-2-(4-isopropyl-1-oxo-6-(trifluoromethyl)phthalazin-2(1H)-yl)acetamide] | 116 nM | > 20000 nM
CC(C)c1nn(CC(=O)N[C@H]2CN(C3CC3)CC[C@H]2O)c(=O)c2ccc(C(F)(F)F)cc12 [Final Cpd X15, N-((3S,4R)-1-cyclopropyl-4-hydroxypiperidin-3-yl)-2-(4-isopropyl-1-oxo-6-(trifluoromethyl)phthalazin-2(1H)-yl)acetamide] | 122 nM | > 20000 nM
CC(C)c1nn(CC(=O)N[C@H]2C[C@@](C)(O)C2)c(=O)c2ccc(C(F)(F)F)c(F)c12 [Final Cpd X17] | 147 nM | > 20000 nM
CC(C)c1nn(CC(=O)Nc2ccc3nnnn3n2)c(=O)c2ccc(C(F)(F)F)cc12 [Final Cpd X18] | 156 nM | > 20000 nM
CCC(C)c1nn(CC(=O)Nc2ccc3nncn3c2)c(=O)c2ccc(C(F)(F)F)cc12 (stereo not shown) [Final Cpd X24] | 175 nM | > 20000 nM
CC(C)c1nn(CC(=O)Nc2ccc3ncn(C)c3c2)c(=O)c2ccc(C(F)(F)F)cc12 [Final Cpd X25] | 178 nM | > 20000 nM
CC(C)c1nn(CC(=O)Nc2ccc3nncn3c2)c(=O)c2ccc(C(F)(F)F)c(F)c12 [Final Cpd X26] | 185 nM | > 20000 nM
Cc1cn2cc(NC(=O)Cn3nc(C(C)C)c4cc(C(F)(F)F)ccc4c3=O)ccc2n1 [Final Cpd X27] | 189 nM | > 20000 nM
Cc1cc(NC(=O)Cn2nc(C(C)C)c3cc(C(F)(F)F)ccc3c2=O)cn2cnnc12 [Final Cpd X28, 2-(4-isopropyl-1-oxo-6-(trifluoromethyl)phthalazin-2(1H)-yl)-N-(8-methyl-[1,2,4]triazolo[4,3-a]pyridin-6-yl)acetamide] | 193 nM | > 20000 nM
CO[C@]1(C)C[C@H](NC(=O)Cn2nc(C(C)C)c3cc(C(F)(F)F)ccc3c2=O)C1 [Final Cpd X29, 2-(4-isopropyl-1-oxo-6-(trifluoromethyl)phthalazin-2(1H)-yl)-N-((1s,3s)-3-methoxy-3-methylcyclobutyl)acetamide] | 216 nM | > 20000 nM
CCc1nn(CC(=O)Nc2ccnnc2)c(=O)c2ccc(C(F)(F)F)cc12 [Final Cpd X30] | 219 nM | > 20000 nM
